Laboratory results as given in ChEMBL document CHEMBL1201861, “Genomics of Drug Sensitity in Cancer screening data, Wellcome Trust Sanger Institute”.
pIC50: −log10 of the molar value.

What was measured:
Experiment in all cases: cells
ME-180 = assay type: functional, cell-based; details: Homo sapiens;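 note: cell viability assay measuring growth inhibition of ME-180 cells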
Description: SANGER: Inhibition of human ME-180 cell growth in a cell viability assay.

LB1047-RCC = assay type: functional, cell-based, Homo sapiens; details: Homo sapiens, LB1047-RCC;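 note: inhibition of cell growth, determined with a cell viability assay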
Description: SANGER: Inhibition of human LB1047-RCC cell growth in a cell viability assay.

EW-16 = assay type: functional, cell-based, Homo sapiens; details: Homo sapiens, EW-16;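 note: growth inhibition of human EW-16 cells, read out as cell viability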
Description: SANGER: Inhibition of human EW-16 cell growth in a cell viability assay.

CAL-72 = assay type: functional, cell-based, Homo sapiens; details: Homo sapiens, CAL-72;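 note: cell viability assay measuring inhibition of proliferation in the CAL-72 cell line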
Description: SANGER: Inhibition of human CAL-72 cell growth in a cell viability assay.

Becker = assay type: functional, cell-based, Homo sapiens; details: Homo sapiens, Becker;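 note: growth inhibition of Becker cells, read out with a cell viability assay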
Description: SANGER: Inhibition of human Becker cell growth in a cell viability assay.

D-542MG = assay type: functional, cell-based, Homo sapiens; details: Homo sapiens, D-542MG
Description: SANGER: Inhibition of human D-542MG cell growth in a cell viability assay.

HOP-92 = assay type: functional, cell-based, Homo sapiens; details: Homo sapiens, HOP-92;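 note: cell viability readout, with IC50 reflecting inhibition of HOP-92 cell growth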
Description: SANGER: Inhibition of human HOP-92 cell growth in a cell viability assay.

COLO-829 = assay type: functional, cell-based, Homo sapiens; details: Homo sapiens, COLO-829
Description: SANGER: Inhibition of human COLO-829 cell growth in a cell viability assay.

KYSE-270 = assay type: functional, cell-based, Homo sapiens; details: Homo sapiens, KYSE-270;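 note: cell growth inhibition measured with a viability assay in the human KYSE-270 line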
Description: SANGER: Inhibition of human KYSE-270 cell growth in a cell viability assay.

PANC-03-27 = assay type: functional, cell-based, Homo sapiens; details: Homo sapiens, PANC-03-27
Description: SANGER: Inhibition of human PANC-03-27 cell growth in a cell viability assay.

NMC-G1 = assay type: functional, cell-based, Homo sapiens; details: Homo sapiens, NMC-G1;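 note: growth inhibition of the NMC-G1 cell line, measured with a cell viability read-out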
Description: SANGER: Inhibition of human NMC-G1 cell growth in a cell viability assay.

JVM-2 = assay type: functional, cell-based; details: Homo sapiens;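 note: growth inhibition of JVM-2 cells determined by a cell viability assay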
Description: SANGER: Inhibition of human JVM-2 cell growth in a cell viability assay.

MIA PaCa-2 = assay type: functional, cell-based, Homo sapiens; details: Homo sapiens, MIA PaCa-2;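 note: growth inhibition of MIA PaCa-2 cells, read out with a cell viability assay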
Description: SANGER: Inhibition of human MIA-PaCa-2 cell growth in a cell viability assay.

NB13 = assay type: functional, cell-based, Homo sapiens; details: Homo sapiens, NB13;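 note: cell viability readout measuring growth inhibition of human NB13 cells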
Description: SANGER: Inhibition of human NB13 cell growth in a cell viability assay.

UACC-62 = assay type: functional, cell-based, Homo sapiens; details: Homo sapiens, UACC-62;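 note: growth inhibition of human UACC-62 cells, read out by a cell viability assay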
Description: SANGER: Inhibition of human UACC-62 cell growth in a cell viability assay.

D-336MG = assay type: functional, cell-based, Homo sapiens; details: Homo sapiens, D-336MG
Description: SANGER: Inhibition of human D-336MG cell growth in a cell viability assay.

DMS-79 = assay type: functional, cell-based; details: Homo sapiens;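 note: growth inhibition measured with a cell viability assay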
Description: SANGER: Inhibition of human DMS-79 cell growth in a cell viability assay.

MHH-NB-11 = assay type: functional, cell-based, Homo sapiens; details: Homo sapiens, MHH-NB-11;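 note: growth inhibition of human MHH-NB-11 cells, read out by a cell viability assay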
Description: SANGER: Inhibition of human MHH-NB-11 cell growth in a cell viability assay.

C2BBe1 = assay type: functional, cell-based, Homo sapiens; details: Homo sapiens, C2BBe1;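 note: growth inhibition of C2BBe1 cells, read out through a viability assay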
Description: SANGER: Inhibition of human C2BBe1 cell growth in a cell viability assay.

MDA-MB-175-VII = assay type: functional, cell-based, Homo sapiens; details: Homo sapiens, MDA-MB-175-VII
OE33 = assay type: functional, cell-based, Homo sapiens; details: Homo sapiens, OE33;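 note: growth inhibition of human OE33 cells, measured by a cell viability assay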
Description: SANGER: Inhibition of human OE33 cell growth in a cell viability assay.

GI-ME-N = assay type: functional, cell-based, Homo sapiens; details: Homo sapiens, GI-ME-N;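 note: growth inhibition of human GI-ME-N cells, read out with a cell viability assay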
Description: SANGER: Inhibition of human GI-ME-N cell growth in a cell viability assay.

K562 = assay type: functional, cell-based; details: Homo sapiens
Description: SANGER: Inhibition of human K-562 cell growth in a cell viability assay.

GOTO = assay type: functional, cell-based, Homo sapiens; details: Homo sapiens, GOTO;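 note: growth inhibition of GOTO cells, read out by a cell viability assay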
Description: SANGER: Inhibition of human GOTO cell growth in a cell viability assay.

HTC-C3 = assay type: functional, cell-based, Homo sapiens; details: Homo sapiens, HTC-C3;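 note: inhibition of cell growth, read out with a cell viability assay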
Description: SANGER: Inhibition of human HTC-C3 cell growth in a cell viability assay.

KYSE-140 = assay type: functional, cell-based, Homo sapiens; details: Homo sapiens, KYSE-140;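 note: cell viability assay measuring growth inhibition in human KYSE-140 cells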
Description: SANGER: Inhibition of human KYSE-140 cell growth in a cell viability assay.

TE-11 = assay type: functional, cell-based, Homo sapiens; details: Homo sapiens, TE-11;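 note: growth inhibition of human TE-11 cells, read out by a cell viability assay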
Description: SANGER: Inhibition of human TE-11 cell growth in a cell viability assay.

DU-4475 = assay type: functional, cell-based; details: Homo sapiens
Description: SANGER: Inhibition of human DU-4475 cell growth in a cell viability assay.

HCC1395 = assay type: functional, cell-based, Homo sapiens; details: Homo sapiens, HCC1395;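 note: growth inhibition of HCC1395 cells, read out by a cell viability assay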
Description: SANGER: Inhibition of human HCC1395 cell growth in a cell viability assay.

SK-MEL-28 = assay type: functional, cell-based; details: Homo sapiens;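 note: growth inhibition of human SK-MEL-28 cells, read out with a cell viability assay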
Description: SANGER: Inhibition of human SK-MEL-28 cell growth in a cell viability assay.

KNS-81-FD = assay type: functional, cell-based, Homo sapiens; details: Homo sapiens, KNS-81-FD;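 note: growth inhibition of KNS-81-FD cells, read out with a cell viability assay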
Description: SANGER: Inhibition of human KNS-81-FD cell growth in a cell viability assay.

SW626 = assay type: functional, cell-based, Homo sapiens; details: Homo sapiens, SW626;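 note: growth inhibition of SW626 cells, measured with a cell viability assay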
Description: SANGER: Inhibition of human SW626 cell growth in a cell viability assay.

S-117 = assay type: functional, cell-based, Homo sapiens; details: Homo sapiens, S-117
Description: SANGER: Inhibition of human S-117 cell growth in a cell viability assay.

SNU-5 = assay type: functional, cell-based; details: Homo sapiens;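 note: cell viability readout used to measure growth inhibition in human NCI-SNU-5 cells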
Description: SANGER: Inhibition of human NCI-SNU-5 cell growth in a cell viability assay.

CTV-1 = assay type: functional, cell-based; details: Homo sapiens;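 note: growth inhibition of the cell line, read out with a cell viability assay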
Description: SANGER: Inhibition of human CTV-1 cell growth in a cell viability assay.

786-0 = assay type: functional, cell-based, Homo sapiens; details: Homo sapiens
Description: SANGER: Inhibition of human 786-0 cell growth in a cell viability assay.

HSC-3 = assay type: functional, cell-based, Homo sapiens; details: Homo sapiens, HSC-3
Description: SANGER: Inhibition of human HSC-3 cell growth in a cell viability assay.

D-502MG = assay type: functional, cell-based, Homo sapiens; details: Homo sapiens, D-502MG
Description: SANGER: Inhibition of human D-502MG cell growth in a cell viability assay.

PANC-08-13 = assay type: functional, cell-based, Homo sapiens; details: Homo sapiens, PANC-08-13;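 note: cell growth inhibition, measured with a cell viability assay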
Description: SANGER: Inhibition of human PANC-08-13 cell growth in a cell viability assay.

RH-1 = assay type: functional, cell-based, Homo sapiens; details: Homo sapiens, RH-1;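 note: growth inhibition of human RH-1 cells, read out with a cell viability assay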
Description: SANGER: Inhibition of human RH-1 cell growth in a cell viability assay.

MKN-45 = assay type: functional, cell-based, Homo sapiens; details: Homo sapiens, MKN-45;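 note: growth inhibition of human MKN-45 cells, measured with a cell viability assay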
Description: SANGER: Inhibition of human MKN45 cell growth in a cell viability assay.

NCI-H1563 = assay type: functional, cell-based, Homo sapiens; details: Homo sapiens, NCI-H1563;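 note: growth inhibition of human NCI-H1563 cells, read out with a cell viability assay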
Description: SANGER: Inhibition of human NCI-H1563 cell growth in a cell viability assay.

RXF 393 = assay type: functional, cell-based; details: Homo sapiens;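 note: growth inhibition of human RXF 393 cells, read out with a cell viability assay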
Description: SANGER: Inhibition of human RXF393 cell growth in a cell viability assay.

HT-1376 = assay type: functional, cell-based, Homo sapiens; details: Homo sapiens, HT-1376
Description: SANGER: Inhibition of human HT-1376 cell growth in a cell viability assay.

HLE = assay type: functional, cell-based, Homo sapiens; details: Homo sapiens, HLE;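 note: growth inhibition of human HLE cells, read out by a cell viability assay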
Description: SANGER: Inhibition of human HLE cell growth in a cell viability assay.

TGBC1TKB = assay type: functional, cell-based, Homo sapiens; details: Homo sapiens, TGBC1TKB;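 note: growth inhibition of TGBC1TKB cells, read out by a cell viability assay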
Description: SANGER: Inhibition of human TGBC1TKB cell growth in a cell viability assay.

CP50-MEL-B = assay type: functional, cell-based, Homo sapiens; details: Homo sapiens, CP50-MEL-B;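 note: growth inhibition of the human cell line, measured with a cell viability read-out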
Description: SANGER: Inhibition of human CP50-MEL-B cell growth in a cell viability assay.

NCI-H1792 = assay type: functional, cell-based, Homo sapiens; details: Homo sapiens, NCI-H1792;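 note: growth inhibition of human NCI-H1792 cells, read out as cell viability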
Description: SANGER: Inhibition of human NCI-H1792 cell growth in a cell viability assay.

SNU-C2B = assay type: functional, cell-based, Homo sapiens; details: Homo sapiens, SNU-C2B;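 note: cell viability readout used to measure compound-driven suppression of SNU-C2B cell proliferation, IC50 marking half-maximal growth inhibition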
Description: SANGER: Inhibition of human SNU-C2B cell growth in a cell viability assay.

TYK-nu = assay type: functional, cell-based, Homo sapiens; details: Homo sapiens, TYK-nu;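 note: growth inhibition of human TYK-nu cells, read out by a cell viability assay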
Description: SANGER: Inhibition of human TYK-nu cell growth in a cell viability assay.

COC(=O)CNC(=O)C(=O)OC gave a pIC50 (ME-180) of 3.59, a pIC50 (LB1047-RCC) of 4.30 and a pIC50 (EW-16) of 3.42. For the same compound, the pIC50 (CAL-72) was 3.31, the pIC50 (Becker) was 3.56 and the pIC50 (D-542MG) was 3.25. The pIC50 (HOP-92) was 2.71, the pIC50 (COLO-829) was 3.95 and the pIC50 (KYSE-270) was 3.56. The pIC50 (PANC-03-27) was 3.17, the pIC50 (NMC-G1) was 3.33 and the pIC50 (JVM-2) was under 2.40. It also gave a pIC50 (MIA PaCa-2) of 3.86, a pIC50 (NB13) of 3.18 and a pIC50 (UACC-62) of under 2.40. It also gave a pIC50 (D-336MG) of under 2.40, a pIC50 (DMS-79) of under 2.40 and a pIC50 (MHH-NB-11) of under 2.40. The pIC50 (C2BBe1) was 2.76, the pIC50 (MDA-MB-175-VII) was under 2.40 and the pIC50 (OE33) was 3.38. For the same compound, the pIC50 (GI-ME-N) was 2.67, the pIC50 (K562) was 2.69 and the pIC50 (GOTO) was 2.94. For the same compound, the pIC50 (HTC-C3) was 3.76, the pIC50 (KYSE-140) was 2.79 and the pIC50 (TE-11) was 3.38. It also gave a pIC50 (DU-4475) of 3.05, a pIC50 (HCC1395) of 2.81 and a pIC50 (SK-MEL-28) of 3.25. The pIC50 (KNS-81-FD) was 2.73, the pIC50 (SW626) was 2.74 and the pIC50 (S-117) was 2.41. The pIC50 (SNU-5) was under 2.40, the pIC50 (CTV-1) was 3.33 and the pIC50 (786-0) was under 2.40. The pIC50 (HSC-3) was 3.21, the pIC50 (D-502MG) was under 2.40 and the pIC50 (PANC-08-13) was 2.84. The pIC50 (RH-1) was 2.86, the pIC50 (MKN-45) was under 2.40 and the pIC50 (NCI-H1563) was 3.91. The pIC50 (RXF 393) was 2.90, the pIC50 (HT-1376) was 3.41 and the pIC50 (HLE) was 4.24. The pIC50 (TGBC1TKB) was 2.75, the pIC50 (CP50-MEL-B) was under 2.40 and the pIC50 (NCI-H1792) was 3.15. It also gave a pIC50 (SNU-C2B) of under 2.40.

COc1ccc(-c2ccc3c(N4CCOC[C@@H]4C)nc(N4CCOC[C@@H]4C)nc3n2)cc1CO [AZD-8055] gave a pIC50 (ME-180) of 6.83, a pIC50 (LB1047-RCC) of 6.47 and a pIC50 (EW-16) of 5.84. For the same compound, the pIC50 (CAL-72) was under 5.70, the pIC50 (Becker) was 5.82 and the pIC50 (HOP-92) was under 5.70. The pIC50 (COLO-829) was under 5.70, the pIC50 (KYSE-270) was 5.80 and the pIC50 (PANC-03-27) was 5.99. The pIC50 (TYK-nu) was 6.50, the pIC50 (NMC-G1) was 5.88 and the pIC50 (JVM-2) was under 5.70. It also gave a pIC50 (MIA PaCa-2) of 6.03, a pIC50 (NB13) of 5.94 and a pIC50 (UACC-62) of under 5.70. For the same compound, the pIC50 (MHH-NB-11) was under 5.70, the pIC50 (C2BBe1) was 5.93 and the pIC50 (MDA-MB-175-VII) was 6.24. It also gave a pIC50 (OE33) of 6.10, a pIC50 (GI-ME-N) of 5.99 and a pIC50 (K562) of under 5.70. For the same compound, the pIC50 (GOTO) was 5.76, the pIC50 (HTC-C3) was 6.14 and the pIC50 (KYSE-140) was 6.11. The pIC50 (TE-11) was under 5.70, the pIC50 (DU-4475) was 7.09 and the pIC50 (HCC1395) was under 5.70. It also gave a pIC50 (SK-MEL-28) of 6.25, a pIC50 (KNS-81-FD) of 5.72 and a pIC50 (SW626) of under 5.70. For the same compound, the pIC50 (S-117) was under 5.70, the pIC50 (SNU-5) was under 5.70 and the pIC50 (CTV-1) was 7.06. For the same compound, the pIC50 (786-0) was 5.96, the pIC50 (HSC-3) was 6.37 and the pIC50 (D-502MG) was under 5.70. The pIC50 (PANC-08-13) was 6.24, the pIC50 (RH-1) was 5.80 and the pIC50 (NCI-H1563) was 6.10. The pIC50 (RXF 393) was 6.03, the pIC50 (HT-1376) was under 5.70 and the pIC50 (HLE) was 6.13. The pIC50 (TGBC1TKB) was 5.88, the pIC50 (CP50-MEL-B) was 6.05 and the pIC50 (NCI-H1792) was 6.01. The pIC50 (SNU-C2B) was under 5.70.

Work on COc1ccc(C2=N[C@@H](c3ccc(Cl)cc3)[C@@H](c3ccc(Cl)cc3)N2C(=O)N2CCNC(=O)C2)c(OC(C)C)c1 [NUTLIN-3] yielded a pIC50 (ME-180) of under 5.10, a pIC50 (LB1047-RCC) of under 5.10 and a pIC50 (EW-16) of under 5.10. The pIC50 (CAL-72) was under 5.10, the pIC50 (Becker) was under 5.10 and the pIC50 (HOP-92) was under 5.10. For the same compound, the pIC50 (COLO-829) was 5.14, the pIC50 (KYSE-270) was under 5.10 and the pIC50 (PANC-03-27) was under 5.10. For the same compound, the pIC50 (TYK-nu) was under 5.10, the pIC50 (NMC-G1) was under 5.10 and the pIC50 (JVM-2) was under 5.10. It also gave a pIC50 (MIA PaCa-2) of under 5.10, a pIC50 (NB13) of under 5.10 and a pIC50 (UACC-62) of under 5.10. It also gave a pIC50 (D-336MG) of under 5.10, a pIC50 (MHH-NB-11) of 5.49 and a pIC50 (C2BBe1) of 5.50. It also gave a pIC50 (MDA-MB-175-VII) of under 5.10, a pIC50 (OE33) of under 5.10 and a pIC50 (GI-ME-N) of 5.21. For the same compound, the pIC50 (K562) was under 5.10, the pIC50 (GOTO) was 5.42 and the pIC50 (HTC-C3) was under 5.10. For the same compound, the pIC50 (KYSE-140) was under 5.10, the pIC50 (TE-11) was under 5.10 and the pIC50 (DU-4475) was 5.55. It also gave a pIC50 (HCC1395) of under 5.10, a pIC50 (SK-MEL-28) of under 5.10 and a pIC50 (KNS-81-FD) of 5.17. For the same compound, the pIC50 (SW626) was under 5.10, the pIC50 (S-117) was under 5.10 and the pIC50 (SNU-5) was under 5.10. The pIC50 (CTV-1) was 5.39, the pIC50 (786-0) was under 5.10 and the pIC50 (HSC-3) was under 5.10. For the same compound, the pIC50 (D-502MG) was 5.53, the pIC50 (PANC-08-13) was under 5.10 and the pIC50 (RH-1) was under 5.10. For the same compound, the pIC50 (MKN-45) was under 5.10, the pIC50 (NCI-H1563) was under 5.10 and the pIC50 (RXF 393) was under 5.10. The pIC50 (HT-1376) was under 5.10, the pIC50 (HLE) was under 5.10 and the pIC50 (TGBC1TKB) was under 5.10. It also gave a pIC50 (CP50-MEL-B) of 5.37, a pIC50 (NCI-H1792) of under 5.10 and a pIC50 (SNU-C2B) of under 5.10.
